Like-named read-outs stand apart in the source and are kept apart here.
What was measured:
HepG2 cells [1] = details: cited from earlier work
rat primary hepatocytes = experiment: MMP assay in rat primary hepatocytes; details: for IC50: read-out: MMP assays IC50 (µM) Rat Hepatocytes
HepG2 cells [2] = details: for IC50: read-out: MMP assays IC50 (µM) HepG2
[3] = read-out: MMP assays IC50 (µM) qHTS-HepG2
[4] = rat hepatocytes, mean ± SD of three experiments
[5] = HepG2 cells, single number from one experiment
[6] = read-out: MMP assays IC50 (µM), qHTS-HepG2

| Structure (SMILES) | MMP assays efficacy (%) qHTS-HepG2 (HepG2 cells [1]) | IC50 (HepG2 cells [1]; [3]) [µM] | MMP assays efficacy (%) Rat Hepatocytes (rat primary hepatocytes; [4]) | IC50 (rat primary hepatocytes; [4]) [µM] | MMP assays efficacy (%) HepG2 (HepG2 cells [2]; [5]) | IC50 (HepG2 cells [2]; [5]) [µM] | MMP assays IC50 (µM) Rat Hepatocytes (rat primary hepatocytes; [4]) | IC50 (HepG2 cells [1]; [6]) [µM] | MMP assays IC50 (µM) HepG2 (HepG2 cells [2]; [5]) | MMP assays IC50 (µM) qHTS-HepG2 (HepG2 cells [1]) | IC50 (rat primary hepatocytes) [µM] | MMP assays efficacy (%) HepG2 (HepG2 cells [2]) [%] |
| --- | --- | --- | --- | --- | --- | --- | --- | --- | --- | --- | --- | --- |
| CC(C)(c1cc(Br)c(OCCO)c(Br)c1)c1cc(Br)c(OCCO)c(Br)c1 | -97±15% | 6.21 ± 0.42 | -88±17% | 32.8 ± 2.67 | -99% | 11 | – | – | – | – | – | – |
| COc1cc(Nc2c(C#N)cnc3cc(OCCCN4CCN(C)CC4)c(OC)cc23)c(Cl)cc1Cl [Bosutinib;PF-5208763/SKI-606] | -97±4% | 0.75 ± 0.48 | -56±1% | 16.6 ± 11.2 | -57% | 1.23 | – | – | – | – | – | – |
| CC(C)(C)NCC(O)CSc1nc(-c2ccc(C(N)=O)s2)cs1.Cl (stereo not drawn) [Arotinolol hydrochloride] | -64±8% | 17 ± 3.45 | inactive | – | -88% | 27.5 | inactive | – | – | – | – | – |
| CCCCCCCC[N+](C)(CCCCCCCC)CCCCCCCC.O=S(=O)([O-])C(F)(F)F [Methyltrioctylammonium trifluoromethanesulfonate] | -86±9% | – | -73±33% | 11.4 ± 2.12 | -105% | 2.24 | – | 2.16 ± 0.72 | – | – | – | – |
| CCC(=O)O[C@]1(C(=O)SCF)[C@H](C)C[C@H]2[C@@H]3C[C@H](F)C4=CC(=O)C=C[C@]4(C)[C@@]3(F)[C@@H](O)C[C@@]21C [Fluticasone propionate] | -58±17% | – | inactive | – | inactive | – | inactive | 9.02 ± 1.71 | inactive | – | – | – |
| CC(C)[C@@H](C)/C=C/[C@@H](C)[C@H]1CC[C@H]2/C(=C/C=C3\C[C@@H](O)CC[C@@H]3C)CCC[C@]12C [Dihydrotachysterol] | -78±16% | 32.7 ± 1.32 | inactive | – | inactive | – | inactive | – | inactive | – | – | – |
| CN1CC(=O)NC1=NC(=O)Nc1cccc(Cl)c1 [Fenobam; McN-3377] | -70±17% | 25.9 ± 1.87 | inactive | – | inactive | – | inactive | – | inactive | – | – | – |
| Oc1ccc(Cl)cc1C1CCCC1 [Compound 4-Chloro-2-cyclopentylphenol] | -99±4% | 5.66 ± 1.93 | -85±8% | 33.6 ± 29.7 | -99% | 6.31 | – | – | – | – | – | – |
| CC(=O)Nc1ccc(NC(=S)NC(=O)c2ccc(C(C)(C)C)cc2)cc1 [Tenovin-1] | -115±19% | – | -41±18% | 18.4 ± 1.5 | -114% | 3.88 | – | 3.27 ± 2.74 | – | – | – | – |
| CCCCCCCCCCCC[n+]1ccc2ccccc2c1.Cc1ccc(S(=O)(=O)[O-])cc1 [2-Dodecylisoquinolinium tosylate] | -83±5% | 3.53 ± 0.5 | -95±7% | 4.94 ± 2.78 | -110% | 4.35 | – | – | – | – | – | – |
| CCc1ccc(O)cc1 [Compound 4-Ethylphenol] | inactive | – | inactive | – | inactive | – | inactive | – | inactive | inactive | – | – |
| Cl.Cl.Nc1ccc(O)c(N)c1 [2,4-Diaminophenol dihydrochloride] | -58±5% | 3.77 ± 1.06 | inactive | – | inactive | – | inactive | – | inactive | – | – | – |
| O=C1c2c(O)ccc(Nc3ccc(CCO)cc3)c2C(=O)c2c([N+](=O)[O-])ccc(O)c21 [C.I. Disperse blue 27] | -86±8% | 2.34 ± 0.87 | -72±24% | 32.5 ± 10.4 | -119% | 25.1 | – | – | – | – | – | – |
| CCC(=C(CC)c1ccc(O)cc1)c1ccc(O)cc1 [(Z,E)-Diethylstilbestrol] | -98±10% | – | – | – | – | – | – | – | – | – | 42.8 ± 10.3 | -104 |
| Oc1ccc(Cc2ccccc2O)cc1 [2-(4-Hydroxybenzyl)phenol] | -89±11% | 27.5 ± 1.92 | inactive | – | -87% | 35.5 | inactive | – | – | – | – | – |
| Cc1cc(C(=C2C=CC(=N)C=C2)c2ccc(N)cc2)ccc1N [C.I. Basic violet 14] | -87±10% | 0.18 ± 0.16 | -71±37% | 6.84 ± 4.71 | -96% | 0.87 | – | – | – | – | – | – |

Source: paper PMC6112376, “Comprehensive Analyses and Prioritization of Tox21 10K Chemicals Affecting Mitochondrial Function by in-Depth Mechanistic Studies” (Environmental Health Perspectives, 2018)
